Earlier results as cited in patent publication US10208167B2, “Cyclodextrins with one or more poly(ethylene glycol) units, inclusion compounds and drug delivery vehicles including the same, and methods of making and using the same” (The Board of Trustees of the California State University, priority 2015, dated 2019).

Columns and labels:
[1] = test system: human salivary and pancreatic amylases

SMILES | fermentation in the intestinal microflora (intestinal microflora) | hydrolysis by human salivary and pancreatic amylases [1]
OC[C@H]1O[C@@H]2O[C@H]3[C@H](O)[C@@H](O)[C@@H](O[C@H]4[C@H](O)[C@@H](O)[C@@H](O[C@H]5[C@H](O)[C@@H](O)[C@@H](O[C@H]6[C@H](O)[C@@H](O)[C@@H](O[C@H]7[C@H](O)[C@@H](O)[C@@H](O[C@H]1[C@H](O)[C@H]2O)O[C@@H]7CO)O[C@@H]6CO)O[C@@H]5CO)O[C@@H]4CO)O[C@@H]3CO [α-CD, α-cyclodextrin] | can be fermented | not hydrolyzed
OC[C@H]1O[C@@H]2O[C@H]3[C@H](O)[C@@H](O)[C@@H](O[C@H]4[C@H](O)[C@@H](O)[C@@H](O[C@H]5[C@H](O)[C@@H](O)[C@@H](O[C@H]6[C@H](O)[C@@H](O)[C@@H](O[C@H]7[C@H](O)[C@@H](O)[C@@H](O[C@H]8[C@H](O)[C@@H](O)[C@@H](O[C@H]9[C@H](O)[C@@H](O)[C@@H](O[C@H]1[C@H](O)[C@H]2O)O[C@@H]9CO)O[C@@H]8CO)O[C@@H]7CO)O[C@@H]6CO)O[C@@H]5CO)O[C@@H]4CO)O[C@@H]3CO [γ-CD, γ-cyclodextrin] | – | not hydrolyzed
